Results reported in patent US20100137449A1, “SUBSTITUTED 1,3-CYCLOPENTADIONE MULTI-TARGET PROTEIN KINASE MODULATORS OF CANCER, ANGIOGENESIS AND THE INFLAMMATORY PATHWAYS ASSOCIATED THEREWITH” (METAPROTEOMICS, LLC, priority 2007, published 2010).

What was measured:
Test in all cases: KinaseProfiler Assay
[1] = target: CDK5/p35(h) (Homo sapiens, UniProt Q00535)
[2] = target: MSK2(h) (Homo sapiens, UniProt O75676)
[3] = target: T1, PKG1α(h) (Homo sapiens, UniProt Q13976)
T1 sequence (Q13976 1-671): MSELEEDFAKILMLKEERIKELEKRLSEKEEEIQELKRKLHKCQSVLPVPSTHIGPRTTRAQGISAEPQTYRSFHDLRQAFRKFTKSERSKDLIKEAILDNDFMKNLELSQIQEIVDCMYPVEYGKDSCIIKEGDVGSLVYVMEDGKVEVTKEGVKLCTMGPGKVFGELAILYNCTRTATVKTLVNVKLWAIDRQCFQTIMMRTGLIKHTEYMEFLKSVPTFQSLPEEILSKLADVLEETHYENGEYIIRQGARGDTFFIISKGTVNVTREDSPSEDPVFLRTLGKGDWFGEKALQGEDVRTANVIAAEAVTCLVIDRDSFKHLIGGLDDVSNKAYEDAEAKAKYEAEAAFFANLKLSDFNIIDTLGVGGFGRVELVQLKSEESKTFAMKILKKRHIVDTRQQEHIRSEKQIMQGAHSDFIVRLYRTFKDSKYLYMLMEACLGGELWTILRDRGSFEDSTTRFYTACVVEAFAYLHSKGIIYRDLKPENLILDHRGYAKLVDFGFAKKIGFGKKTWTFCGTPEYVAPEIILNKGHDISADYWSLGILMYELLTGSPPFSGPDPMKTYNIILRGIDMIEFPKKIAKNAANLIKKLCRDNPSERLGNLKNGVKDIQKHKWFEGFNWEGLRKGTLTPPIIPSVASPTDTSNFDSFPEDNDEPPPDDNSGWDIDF

[4] = target: T2, PRAK(h) (Homo sapiens, UniProt Q8IW41)
T2 sequence (Q8IW41 1-473): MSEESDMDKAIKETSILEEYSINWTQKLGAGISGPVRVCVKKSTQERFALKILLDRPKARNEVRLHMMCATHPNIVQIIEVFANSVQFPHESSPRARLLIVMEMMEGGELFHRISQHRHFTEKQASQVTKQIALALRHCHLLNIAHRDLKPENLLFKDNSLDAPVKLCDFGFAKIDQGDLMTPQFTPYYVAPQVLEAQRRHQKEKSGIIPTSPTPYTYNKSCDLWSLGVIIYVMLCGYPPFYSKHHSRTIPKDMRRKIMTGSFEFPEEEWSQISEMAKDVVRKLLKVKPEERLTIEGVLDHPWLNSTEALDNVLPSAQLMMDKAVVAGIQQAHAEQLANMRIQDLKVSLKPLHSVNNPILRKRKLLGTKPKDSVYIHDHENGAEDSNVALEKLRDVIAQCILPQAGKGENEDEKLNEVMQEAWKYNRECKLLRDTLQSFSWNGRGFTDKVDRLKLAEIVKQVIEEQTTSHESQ

[5] = target: FGFR4(h) (Homo sapiens, UniProt P22455)
FGFR4(h), sequence (P22455 22-802): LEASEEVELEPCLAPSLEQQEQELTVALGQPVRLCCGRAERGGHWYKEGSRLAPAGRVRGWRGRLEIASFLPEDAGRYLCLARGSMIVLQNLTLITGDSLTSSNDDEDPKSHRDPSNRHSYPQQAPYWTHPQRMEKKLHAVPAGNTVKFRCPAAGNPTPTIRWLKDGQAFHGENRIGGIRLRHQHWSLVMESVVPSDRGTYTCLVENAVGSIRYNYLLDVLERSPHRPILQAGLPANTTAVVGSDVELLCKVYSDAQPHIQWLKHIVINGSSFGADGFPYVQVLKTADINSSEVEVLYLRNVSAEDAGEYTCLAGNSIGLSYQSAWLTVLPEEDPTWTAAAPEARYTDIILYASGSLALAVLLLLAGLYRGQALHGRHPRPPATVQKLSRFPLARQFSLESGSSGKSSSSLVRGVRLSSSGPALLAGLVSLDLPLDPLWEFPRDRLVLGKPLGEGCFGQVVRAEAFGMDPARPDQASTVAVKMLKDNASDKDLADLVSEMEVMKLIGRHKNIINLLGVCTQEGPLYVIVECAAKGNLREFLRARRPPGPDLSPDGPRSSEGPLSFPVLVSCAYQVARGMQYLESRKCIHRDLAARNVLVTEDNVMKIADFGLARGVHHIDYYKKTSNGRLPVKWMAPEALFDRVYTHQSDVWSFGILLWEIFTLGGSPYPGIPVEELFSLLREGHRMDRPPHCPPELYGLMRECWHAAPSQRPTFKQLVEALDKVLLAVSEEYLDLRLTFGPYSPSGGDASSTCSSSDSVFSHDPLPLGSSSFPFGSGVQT

[6] = target: CHK2(R145W)(h) (Homo sapiens, UniProt O96017, R145W)
CHK2(R145W)(h), sequence (O96017 whole entry R145W): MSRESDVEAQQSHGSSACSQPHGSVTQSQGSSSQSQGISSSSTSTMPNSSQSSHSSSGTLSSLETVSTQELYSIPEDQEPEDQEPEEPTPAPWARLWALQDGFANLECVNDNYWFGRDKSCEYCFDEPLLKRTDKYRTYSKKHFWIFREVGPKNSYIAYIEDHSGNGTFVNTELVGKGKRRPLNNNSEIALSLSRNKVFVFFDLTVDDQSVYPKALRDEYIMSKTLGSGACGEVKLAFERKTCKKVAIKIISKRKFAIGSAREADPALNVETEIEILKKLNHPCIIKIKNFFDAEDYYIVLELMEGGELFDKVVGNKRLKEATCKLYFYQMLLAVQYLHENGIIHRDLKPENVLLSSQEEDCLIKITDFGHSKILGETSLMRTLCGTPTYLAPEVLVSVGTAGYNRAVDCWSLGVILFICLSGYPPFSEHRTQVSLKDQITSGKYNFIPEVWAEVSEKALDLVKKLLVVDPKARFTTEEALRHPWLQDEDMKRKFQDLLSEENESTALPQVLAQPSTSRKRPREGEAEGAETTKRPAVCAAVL

[7] = target: EGFR(L858R)(h) (Homo sapiens, UniProt P00533, L858R)
EGFR(L858R)(h), sequence (P00533 25-1210 L858R): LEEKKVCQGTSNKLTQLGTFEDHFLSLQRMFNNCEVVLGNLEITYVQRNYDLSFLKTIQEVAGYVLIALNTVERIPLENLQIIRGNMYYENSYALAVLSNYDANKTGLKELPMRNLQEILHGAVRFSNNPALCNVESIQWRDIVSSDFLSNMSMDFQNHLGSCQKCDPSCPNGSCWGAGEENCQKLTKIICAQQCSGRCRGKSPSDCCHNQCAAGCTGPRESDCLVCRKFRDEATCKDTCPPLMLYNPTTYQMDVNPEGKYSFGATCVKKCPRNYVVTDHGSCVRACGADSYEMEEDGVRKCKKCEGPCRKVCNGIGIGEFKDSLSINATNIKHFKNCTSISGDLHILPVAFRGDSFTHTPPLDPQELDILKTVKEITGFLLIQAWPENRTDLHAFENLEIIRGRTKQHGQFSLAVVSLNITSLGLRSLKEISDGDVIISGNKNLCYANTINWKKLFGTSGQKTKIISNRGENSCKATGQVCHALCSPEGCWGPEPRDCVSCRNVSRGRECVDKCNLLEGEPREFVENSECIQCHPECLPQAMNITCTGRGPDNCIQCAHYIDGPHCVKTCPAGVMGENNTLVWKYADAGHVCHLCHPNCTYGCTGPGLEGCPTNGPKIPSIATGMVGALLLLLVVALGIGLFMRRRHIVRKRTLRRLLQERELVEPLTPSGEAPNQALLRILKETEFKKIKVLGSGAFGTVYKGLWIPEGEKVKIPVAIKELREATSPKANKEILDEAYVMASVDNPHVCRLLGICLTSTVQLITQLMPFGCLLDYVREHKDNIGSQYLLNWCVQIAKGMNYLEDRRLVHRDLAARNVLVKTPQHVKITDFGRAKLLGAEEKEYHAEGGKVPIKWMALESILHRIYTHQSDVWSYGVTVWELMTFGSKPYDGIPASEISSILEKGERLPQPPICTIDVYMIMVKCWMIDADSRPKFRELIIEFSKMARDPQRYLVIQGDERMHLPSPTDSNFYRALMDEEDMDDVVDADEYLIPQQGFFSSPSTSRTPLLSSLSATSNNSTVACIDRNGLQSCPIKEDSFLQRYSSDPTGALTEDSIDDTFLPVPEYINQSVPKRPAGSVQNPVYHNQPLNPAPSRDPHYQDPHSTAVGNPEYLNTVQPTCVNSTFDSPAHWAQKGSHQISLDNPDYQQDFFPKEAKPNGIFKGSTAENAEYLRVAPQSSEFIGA

[8] = target: CDK2/cyclinA(h) (Homo sapiens, UniProt P24941)

CDK5/p35(h), sequence (Q00535 whole entry): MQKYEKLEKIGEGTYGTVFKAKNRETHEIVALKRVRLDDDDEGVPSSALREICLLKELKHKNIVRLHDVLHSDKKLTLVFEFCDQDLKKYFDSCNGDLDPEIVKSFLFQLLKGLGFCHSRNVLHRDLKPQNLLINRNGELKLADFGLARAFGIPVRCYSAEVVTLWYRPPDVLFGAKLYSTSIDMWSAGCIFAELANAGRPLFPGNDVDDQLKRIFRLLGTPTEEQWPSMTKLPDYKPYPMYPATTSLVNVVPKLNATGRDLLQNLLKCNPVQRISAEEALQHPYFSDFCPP
CDK5/p35(h), sequence (Q15078 whole entry partner): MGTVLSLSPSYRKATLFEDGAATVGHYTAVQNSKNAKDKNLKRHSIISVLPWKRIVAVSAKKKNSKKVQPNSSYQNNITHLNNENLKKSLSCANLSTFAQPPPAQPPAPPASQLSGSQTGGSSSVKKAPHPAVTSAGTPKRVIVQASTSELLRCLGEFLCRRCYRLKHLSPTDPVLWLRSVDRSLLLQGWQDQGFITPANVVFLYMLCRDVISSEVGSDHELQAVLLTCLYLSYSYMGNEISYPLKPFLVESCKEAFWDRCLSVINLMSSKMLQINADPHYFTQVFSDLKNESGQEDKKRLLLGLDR
MSK2(h), sequence (O75676 whole entry): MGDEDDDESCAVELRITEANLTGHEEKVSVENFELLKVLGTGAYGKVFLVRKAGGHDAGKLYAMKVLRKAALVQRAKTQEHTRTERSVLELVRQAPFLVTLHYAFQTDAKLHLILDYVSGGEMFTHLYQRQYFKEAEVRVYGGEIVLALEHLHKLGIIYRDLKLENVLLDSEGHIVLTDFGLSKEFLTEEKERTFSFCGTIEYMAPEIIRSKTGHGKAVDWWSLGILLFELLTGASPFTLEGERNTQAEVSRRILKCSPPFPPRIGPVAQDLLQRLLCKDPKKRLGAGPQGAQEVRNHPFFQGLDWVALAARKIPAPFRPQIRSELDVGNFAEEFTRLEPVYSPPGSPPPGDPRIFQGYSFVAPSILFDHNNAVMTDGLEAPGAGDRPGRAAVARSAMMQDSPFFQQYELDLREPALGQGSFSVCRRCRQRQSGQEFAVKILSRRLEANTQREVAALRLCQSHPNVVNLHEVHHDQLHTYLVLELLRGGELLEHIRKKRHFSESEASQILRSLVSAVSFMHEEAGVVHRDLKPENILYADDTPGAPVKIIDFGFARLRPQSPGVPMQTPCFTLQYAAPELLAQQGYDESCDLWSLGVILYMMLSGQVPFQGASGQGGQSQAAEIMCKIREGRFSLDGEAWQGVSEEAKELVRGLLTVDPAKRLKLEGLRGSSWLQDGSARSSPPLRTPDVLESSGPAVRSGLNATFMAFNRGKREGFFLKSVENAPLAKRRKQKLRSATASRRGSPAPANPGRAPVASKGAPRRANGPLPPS

## CC(C)CCC(=O)[C@]1(O)C(O)=C(C(=O)C(C)C)C(=O)[C@H]1CCC(C)C [TH2, tetrahydroiso-cohumulone]
[1]; 1 μg/ml
  kinase inhibition: 105% of control
[1]; 5 μg/ml
  kinase inhibition: 98% of control
[1]; 25 μg/ml
  kinase inhibition: 106% of control
[1]; 50 μg/ml
  kinase inhibition: 80% of control
[1]; 100 μg/ml
  kinase inhibition: 90% of control
[2]; 1 μg/ml
  kinase inhibition: 99% of control
[2]; 5 μg/ml
  kinase inhibition: 94% of control
[2]; 25 μg/ml
  kinase inhibition: 70% of control
[2]; 50 μg/ml
  kinase inhibition: 51% of control
[2]; 100 μg/ml
  kinase inhibition: 37% of control
[3]; 1 μg/ml
  kinase inhibition: 103% of control
[3]; 5 μg/ml
  kinase inhibition: 112% of control
[3]; 25 μg/ml
  kinase inhibition: 97% of control
[3]; 50 μg/ml
  kinase inhibition: 92% of control
[3]; 100 μg/ml
  kinase inhibition: 73% of control
[4]; 1 μg/ml
  kinase inhibition: 66% of control
[4]; 5 μg/ml
  kinase inhibition: 45% of control
[4]; 25 μg/ml
  kinase inhibition: 19% of control
[4]; 50 μg/ml
  kinase inhibition: 24% of control
[4]; 100 μg/ml
  kinase inhibition: 19% of control
[5]; 1 μg/ml
  kinase inhibition: 89% of control
[5]; 5 μg/ml
  kinase inhibition: 81% of control
[5]; 25 μg/ml
  kinase inhibition: 55% of control
[5]; 50 μg/ml
  kinase inhibition: 64% of control
[5]; 100 μg/ml
  kinase inhibition: 55% of control
[6]; 1 μg/ml
  kinase inhibition: 110% of control
[6]; 5 μg/ml
  kinase inhibition: 112% of control
[6]; 25 μg/ml
  kinase inhibition: 99% of control
[6]; 50 μg/ml
  kinase inhibition: 86% of control
[6]; 100 μg/ml
  kinase inhibition: 80% of control
[7]; 1 μg/ml
  kinase inhibition: 109% of control
[7]; 5 μg/ml
  kinase inhibition: 117% of control
[7]; 25 μg/ml
  kinase inhibition: 104% of control
[7]; 50 μg/ml
  kinase inhibition: 90% of control
[7]; 100 μg/ml
  kinase inhibition: 70% of control
[8]; 1 μg/ml
  kinase inhibition: 114% of control
[8]; 5 μg/ml
  kinase inhibition: 124% of control
[8]; 25 μg/ml
  kinase inhibition: 95% of control
[8]; 50 μg/ml
  kinase inhibition: 98% of control
[8]; 100 μg/ml
  kinase inhibition: 87% of control
